Experimental data taken from ChEMBL document CHEMBL1156128, “Nitric oxide-donating carbonic anhydrase inhibitors for the treatment of open-angle glaucoma” (Bioorg Med Chem Lett, 2009).
≈ marks a conversion by molar mass, not a printed value.

Key:
physchem = conditions: buffer, pH 6
Oryctolagus cuniculus = species on record: Oryctolagus cuniculus; assay: tissue or blood; conditions: Aorta
Description: Vasorelaxant activity against methoxiamin-induced contraction in rabbit aortic ring

Carbonic anhydrase 1 = Carbonic anhydrase 1 (Homo sapiens, UniProt P00915); assay: Inhibition of human carbonic anhydrase 1 up to 100 uM by CO2 hydrase stopped flow assay
Sequence of Carbonic anhydrase 1 (P00915 whole entry): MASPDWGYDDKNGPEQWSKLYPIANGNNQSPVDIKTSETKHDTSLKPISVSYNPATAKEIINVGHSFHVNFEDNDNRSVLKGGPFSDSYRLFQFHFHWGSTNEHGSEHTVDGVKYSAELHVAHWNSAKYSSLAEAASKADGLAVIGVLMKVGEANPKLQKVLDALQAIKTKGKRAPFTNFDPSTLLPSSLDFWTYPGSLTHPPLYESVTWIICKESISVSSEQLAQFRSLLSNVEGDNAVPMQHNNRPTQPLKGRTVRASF

Carbonic anhydrase 2 = Carbonic anhydrase 2 (Homo sapiens, UniProt P00918); assay: Inhibition of human carbonic anhydrase 2 up to 100 uM by CO2 hydrase stopped flow assay
Carbonic anhydrase 4 = Carbonic anhydrase 4 (Homo sapiens, UniProt P22748); assay: Inhibition of human carbonic anhydrase 4 up to 100 uM by CO2 hydrase stopped flow assay
Sequence of Carbonic anhydrase 4 (P22748 whole entry): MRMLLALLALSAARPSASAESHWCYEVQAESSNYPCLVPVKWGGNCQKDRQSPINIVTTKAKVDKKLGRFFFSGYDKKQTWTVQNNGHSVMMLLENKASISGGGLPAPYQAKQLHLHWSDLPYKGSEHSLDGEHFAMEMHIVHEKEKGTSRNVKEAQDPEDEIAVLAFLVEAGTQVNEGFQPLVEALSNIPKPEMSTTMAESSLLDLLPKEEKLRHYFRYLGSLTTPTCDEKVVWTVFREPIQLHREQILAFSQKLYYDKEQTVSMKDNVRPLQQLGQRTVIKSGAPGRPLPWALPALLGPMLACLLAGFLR

solubility (physchem) [mg/mL] | Structure (SMILES) | EC50 (Oryctolagus cuniculus) [µM] | Ki (Carbonic anhydrase 1) | Ki (Carbonic anhydrase 2) | Ki (Carbonic anhydrase 4)
0.25 (≈ 0.517 mM) | CCN(C(=O)CCCCCO[N+](=O)[O-])[C@H]1C[C@H](C)S(=O)(=O)c2sc(S(N)(=O)=O)cc21 | 4.25 | – | – | –
– | CCN(C(=O)OCC(CO[N+](=O)[O-])O[N+](=O)[O-])[C@H]1C[C@H](C)S(=O)(=O)c2sc(S(N)(=O)=O)cc21 (stereo not given in full) | 0.37 | – | – | –
15.1 (≈ 32 mM) | CCN(C(=O)OCCCO[N+](=O)[O-])[C@H]1C[C@H](C)S(=O)(=O)c2sc(S(N)(=O)=O)cc21 | 2.05 | – | – | –

Structure (SMILES) | solubility (physchem) [mg/mL] | EC50 (Oryctolagus cuniculus) [µM] | Ki (Carbonic anhydrase 1) | Ki (Carbonic anhydrase 2) | Ki (Carbonic anhydrase 4)
O=[N+]([O-])O[C@@H]1CO[C@H]2[C@@H]1OC[C@@H]2O [ISOSORBIDE MONONITRATE] | < 20 | 10.8 | Not Active | Not Active | Not Active
